Data published in paper PMC8433439, “Bivalent ligands promote endosomal trafficking of the dopamine D3 receptor-neurotensin receptor 1 heterodimer” (Communications Biology, 2021).
Entries after “also recorded” stand apart in the source; their conditions may differ.

What was measured:
D3R [1] = molecular target: T1, D3R (Homo sapiens, UniProt P35462); assay: IPOne accumulation, D3R-mediated G protein activation, HEK293T cells with D3R and Gqprom; format: cell-based; parameters: host or cells: HEK293T, transient; details: compared to the reference agonist quinpirole
Procedure: Supplementary Figure 7 . Activation of D3R in transiently transfected HEK293T cells. D3R-mediated activation of G proteins was measured by stimulation of HEK293T cells transiently transfected with D3R and a promiscuous Gq protein (Gqprom). Subsequent f ormation of IP3 as second messenger of the Gq signaling pathway was determined employing the IPOne assay (CisBio). […]
TransIT293 in a DNA to reagent ratio of 1 : 3. After 24h, cells were detached using Versene […]
Germany) and additionally cultivated f or 24 h at 37°C, 5% CO 2. After replacement of the medium with 10 µL stimulation buffer (CisBio, Codolet, France), 5 µL of the test compounds dissolved in stimulation buffer were added. After 90 min at 37°C, 5 µL of IP1 reagent mix and 5 µ L of AB r eag ent mix in lysis buff er (CisBio) were added, f ollowed by a 60 min incubation at room temperature under light exclusion. The FRET ratio was determined using a CLARIOstar microplate reader with a f ilter […]
A sigmoid curve was fitted using the algorithms for three-parameter non-linear regression provided by GraphPad Pr ism 6.0 and the data were normalized to […]

D3R [2] = molecular target: T1, D3R; assay: Radioligand competition/saturation binding with [3H]spiperone, membranes of HEK293T cells monoexpressing D3R; details: read-out: % Specific binding [³H]Spiperone, D3R; for remaining activity at 0.001 µM: log concentration -9.00; for remaining activity at 0.0001 µM: log concentration -10.00; for remaining activity at 1 pM: log concentration -12.00
Procedure: (§1) Affinities of the bivalent ligands were determined by radio-ligand displacement in analogy to previously described protocols[76]. […] Competition binding experiments were carried out using a protein concentration of 4–18 µg protein per well for the coexpression systems and 1–12 µg per well for the monoexpression system in a total volume of 200 µL. […] All binding experiments were carried out at 37 °C in binding buffer consisting of 50 mM Tris pH 7.4, 5 nM MgCl2, 1 mM EDTA, 100 µg ∙ mL^−1 bacitracin and 100 µg ∙ mL^−1 soybean trypsin inhibitor. Data were normalised to non-specific and total binding and analysed employing one- or two-site competition binding algorithms implemented in GraphPad Prism for windows, version 6.0 (GraphPad Software, San Diego California, USA, www.graphpad.com).

D3R [3] = molecular target: T1, D3R; assay: Surface ELISA, monoexpressed Flag-D3R; format: cell-based; parameters: host or cells: HEK293T, transient; details: 1 µM quinpirole, 1 µM NT(8-13) or 10 nM 1d, 30 min
Procedure: β-arrestin 2 recruitment (bystander BRET)6
HEK293SL cells were diluted to a density of 350 ,000 cells ∙ mL-1 and transiently transfected using
to a total DNA amount of 1 µg . 35,000 cells were plated in a 96-well plate coated with poly L- ornithine
and cultivated f or 48 h at 37°C, 5% CO2. On the day of the experiment, the cell medium was aspirated
and each well was washed once with PBS and serum starved f or 30-45 min. A Deep Blue C dilution
ligand dilution in Tyrode’s buffer was added. After additional stimulation for 5 min at 37°C, 5% CO2,
BRET2 was determined using a Mithras LB940 multimode microplate reader with 400- 70 nm (donor)
Obtained BRETratios were normalized to vehicle
non- linear regression employing the models implemented in GraphPad Prism 6.

D3R-Rluc = molecular target: T2, D3R-Rluc (Homo sapiens, UniProt P35462); assay: Bystander BRET internalisation (rGFP-CAAX / rGFP-FYVE), monoexpressed D3R-Rluc; format: cell-based; details: 1 µM quinpirole or 10 nM bivalent ligand
T2 construct: 24-aa linker […]; expressed in transfected cells; host or cells: HEK293SL or Δβ-arrestin-HEK, transient
Procedure: HEK293SL cells[71] or Δβ-arrestin-HEK[49] were detached with Trypsin/EDTA (Wisent Inc., St-Bruno, QC, Canada) and 350,000 cells were transiently transfected in suspension using polyethyleneimine. 5 ng of NTSR1-Rluc or 400 ng of D3R-Rluc8 were either mono-or cotransfected with 600 ng of untagged D3R or 5 ng NTSR1, respectively, along with 300 ng rGFP-CAAX or 300 ng rGFP-FYVE and ssDNA to a total of 1 µg DNA. Cells were seeded in white poly-L-ornithine (Sigma Aldrich) coated 96-well plates (Greiner Bio one) at a density of 35,000 cells per well. 48 hours after transfection, cells were washed once with PBS and serum starved for 30–45 min in Tyrode’s Buffer at 37 °C, 5% CO2. Coelenterazine-h was added in a final concentration of 3 µM and cells were further incubated at 37 °C, 5% CO2. After 3 min, ligands were added and cells were stimulated for 30 min, 37 °C, 5% CO2 before determining the BRETratio using a Mithras LB940 multimode microplate reader with 480-20 nm (donor) and 530-20 nm (acceptor) filters. […] Ligand-induced effects were monitored by calculation of ΔBRET, which was determined as the difference in BRETratio between the ligand-treated conditions and vehicle-treated controls. Data were analysed by three-parameter sigmoid or bell-shaped nonlinear regression using the algorithms provided by GraphPad Prism 6.0.

D3R [4] = molecular target: T1, D3R; assay: biochemical
Procedure: as §1

T1 sequence (P35462 whole entry): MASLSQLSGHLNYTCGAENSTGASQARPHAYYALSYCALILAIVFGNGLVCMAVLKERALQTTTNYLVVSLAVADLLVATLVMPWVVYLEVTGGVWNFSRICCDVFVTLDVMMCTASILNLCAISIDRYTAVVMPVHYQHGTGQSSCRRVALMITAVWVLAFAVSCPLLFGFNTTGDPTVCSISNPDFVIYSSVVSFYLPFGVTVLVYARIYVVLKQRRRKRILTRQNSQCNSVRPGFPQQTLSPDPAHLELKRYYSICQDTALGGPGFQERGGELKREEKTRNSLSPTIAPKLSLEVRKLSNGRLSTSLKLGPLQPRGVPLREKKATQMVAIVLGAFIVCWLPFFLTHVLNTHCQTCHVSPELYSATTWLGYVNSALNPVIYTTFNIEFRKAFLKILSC
T2 sequence (P35462 whole entry): as above

SMILES | D3R-mediated activation of G proteins (D3R [1]) | remaining activity at 0.001 µM (D3R [2]) [%] | remaining activity at 0.0001 µM (D3R [2]) [%] | remaining activity at 1 pM (D3R [2]) [%] | surface expression of monoexpressed D3R (D3R [3]) | remaining activity at 0.302 µM (D3R [2]; log concentration -6.52) [%] | remaining activity at 0.0302 µM (D3R [2]; log concentration -7.52) [%] | remaining activity at 0.00302 µM (D3R [2]; log concentration -8.52) [%] | remaining activity at 0.000302 µM (D3R [2]; log concentration -9.52) [%] | remaining activity at 30.2 pM (D3R [2]; log concentration -10.52) [%] | internalisation of monoexpressed D3R-Rluc (D3R-Rluc) | Ki (D3R [4]) [nM] | remaining activity at 0.01 µM (D3R [2]; log concentration -8.00) [%] | remaining activity at 10 pM (D3R [2]; log concentration -11.00) [%]
CCCN(CCCCc1cn(-c2ccc(-c3ccc(C(=O)NCCOCCOCCOCCOCCOCCOCCC(=O)N[C@@H](CCCNC(=N)N)C(=O)N[C@@H](CCCNC(=N)N)C(=O)N4CCC[C@H]4C(=O)N[C@@H](Cc4ccc(O)cc4)C(=O)N[C@H](C(=O)N[C@@H](CC(C)C)C(=O)O)[C@@H](C)CC)cc3)cc2)nn1)C1Cc2ccccc2C1 [1a] | full D3R agonists | 48.9 | 74.5 | 88.8 | – | – | – | – | – | – | – | – | – | –
CCCN(CCCCc1cn(-c2ccc(-c3ccc(C(=O)NCCOCCOCCOCCOCCOCCOCCC(=O)NCCOCCOCCOCCOCCOCCOCCC(=O)NCCOCCOCCOCCOCCOCCOCCC(=O)NCCOCCOCCOCCOCCOCCOCCC(=O)N[C@@H](CCCNC(=N)N)C(=O)N[C@@H](CCCNC(=N)N)C(=O)N4CCC[C@H]4C(=O)N[C@@H](Cc4ccc(O)cc4)C(=O)N[C@H](C(=O)N[C@@H](CC(C)C)C(=O)O)[C@@H](C)CC)cc3)cc2)nn1)C1Cc2ccccc2C1 [1d] | full D3R agonists | – | 92.1 | 103 | unchanged; also recorded: did not lead to apparent changes in surface expression | -0.137 | 12.6 | 46.4 | 92.1 | 96.8 | could not detect internalisation | – | – | –
CC[C@H](C)[C@H](NC(=O)[C@H](Cc1ccc(O)cc1)NC(=O)[C@@H]1CCCN1C(=O)[C@H](CCCNC(=N)N)NC(=O)[C@H](CCCNC(=N)N)NC(=O)CCOCCOCCOCCOCCOCCOCCNC(=O)c1ccc(-c2ccc(-n3cc(CCCCN4CCN(c5ccccc5OC)CC4)nn3)cc2)cc1)C(=O)N[C@@H](CC(C)C)C(=O)O [2a] | weak partial agonist or antagonist-like behavior | 75 | 90 | 102 | – | – | – | – | – | – | – | 4.4 | 44.3 | 92
CC[C@H](C)[C@H](NC(=O)[C@H](Cc1ccc(O)cc1)NC(=O)[C@@H]1CCCN1C(=O)[C@H](CCCNC(=N)N)NC(=O)[C@H](CCCNC(=N)N)NC(=O)CCOCCOCCOCCOCCOCCOCCNC(=O)CCOCCOCCOCCOCCOCCOCCNC(=O)CCOCCOCCOCCOCCOCCOCCNC(=O)CCOCCOCCOCCOCCOCCOCCNC(=O)c1ccc(-c2ccc(-n3cc(CCCCN4CCN(c5ccccc5OC)CC4)nn3)cc2)cc1)C(=O)N[C@@H](CC(C)C)C(=O)O [2d] | weak partial agonist or antagonist-like behavior | – | – | 94.4 | – | – | – | – | – | – | could not detect internalisation | – | – | –
